Measurements published in patent US4668770A, “Renin inhibitory tripeptides” (Merck & Co., Inc., priority 1984, dated 1987).
Non-standard residues stand in square brackets, D forms with d. Residues, ends and D or L forms follow the SMILES beside them. *: point of attachment. Sta = CC(C)C[C@H](N)[C@@H](O)CC(=O)O; Phenoxyacetyl = O=C(COc1ccccc1)*; Boc = CC(C)(C)OC(=O)*

How the values were obtained:
[1] = molecular target: hog kidney renin (Sus scrofa, UniProt A0A287APG1); test: Hog renin inhibition; type: biochemical; details: for IC50: pH 7.3, concentration producing 50% inhibition of renin activity, read-out: I50
Chain of hog kidney renin (A0A287APG1 67-407): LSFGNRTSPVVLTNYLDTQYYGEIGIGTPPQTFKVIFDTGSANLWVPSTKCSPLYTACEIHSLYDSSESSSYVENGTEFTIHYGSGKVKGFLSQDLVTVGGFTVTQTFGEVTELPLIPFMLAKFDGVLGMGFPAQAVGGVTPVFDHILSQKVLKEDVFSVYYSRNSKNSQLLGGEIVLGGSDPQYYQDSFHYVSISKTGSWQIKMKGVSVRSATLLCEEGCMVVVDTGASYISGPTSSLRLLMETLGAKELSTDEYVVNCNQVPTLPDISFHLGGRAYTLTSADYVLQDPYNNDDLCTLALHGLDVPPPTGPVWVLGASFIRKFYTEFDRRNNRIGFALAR
Description: An assay was carried out in order to determine the inhibitory potency of the peptides of the present invention. The assay measured the inhibition of hog kidney renin, and was in accordance with the procedure described in Rich et al., J. Med. Chem. 23: 27, 1980, except that a pH of 7.3 was used. The results of the assay, illustrated in the table below, are expressed as I50 values, which refers to the concentration of peptide inhibitor necessary to produce 50% inhibition of renin activity. This I50 value is obtained typically by plotting data from four inhibitor concentrations.

[2] = molecular target: T1, human kidney renin (Homo sapiens, UniProt P00797); test: Human renin inhibition; type: biochemical; details: purified human kidney renin; dissociation constant of the inhibited enzyme-inhibitor complex
T1 construct: human kidney renin purified as described in Bangham; from tissue; host or cells: human kidney
T1 sequence (P00797 67-406): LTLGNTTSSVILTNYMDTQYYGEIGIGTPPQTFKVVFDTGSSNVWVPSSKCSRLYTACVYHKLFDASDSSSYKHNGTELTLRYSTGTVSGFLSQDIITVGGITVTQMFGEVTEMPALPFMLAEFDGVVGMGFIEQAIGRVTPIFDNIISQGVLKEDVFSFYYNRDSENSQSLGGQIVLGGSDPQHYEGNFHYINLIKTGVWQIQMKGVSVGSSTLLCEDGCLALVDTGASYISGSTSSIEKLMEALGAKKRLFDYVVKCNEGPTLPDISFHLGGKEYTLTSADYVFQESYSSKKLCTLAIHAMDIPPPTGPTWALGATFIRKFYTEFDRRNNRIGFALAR
Description: An assay was carried out in order to determine the inhibitory potency of the peptides of the present invention. The assay measured the inhibition of human kidney renin purified as described in Bangham, D. R., Robertson, I., Robinson, J. I. S., Robinson, C. J., and Tree, M., Clinical Science and Molecular Medicine, 48 (Supp. 2): 136s-159s (1975), and further purified by affinity chromatography on pepstatin-aminohexyl-Sepharase as described in Poe, M., Wu., J. K., Florance, J. R., Radkey, J. A., Bennett, C. D., and Hoagsteen, K., J. Biol. Chem. (1982, in press). The assay was also in accordance with Poe et al. cited above. Results are expressed as KI values, which refer to the dissociation constant of the inhibited enzyme--inhibitor complex. This KI value was obtained as described above. […]

| IC50 [1] | Ki [2] | Compound | other results |
| --- | --- | --- | --- |
| – | – | CC(C)C[C@H](NC(=O)C[C@H](O)[C@H](CC(C)C)NC(=O)[C@H](Cc1c[nH]cn1)NC(=O)C(C)Cc1ccccc1)C(=O)NCc1ccccc1 (single isomer, unassigned) [2-methyl-3-phenylpropionyl-His--Sta--Leu--benzylamide ("A" Isomer), 2-methyl-3-phenylpropionyl-His-Sta-Leu-benzylamide] | inhibition at 1.3 µM ([1]; pH 7.3, at 1.3 × 10^-6 M, read-out: inhibition of renin activity at 1.3 × 10^-6 (printed in the I50 column)): 15% |
| 2200 nM | 900 nM | CC(C)C[C@H](NC(=O)C[C@H](O)[C@H](CC(C)C)NC(=O)[C@H](Cc1c[nH]cn1)NC(=O)C(Cc1ccccc1)c1ccccc1)C(=O)NCc1ccccc1 (stereo partly drawn) [2,3-diphenylpropionyl-His-Sta-Leu-benzylamide] | – |
| 610 nM | – | CC(C)CC=CC(Cc1ccccc1)C(=O)N[C@@H](Cc1c[nH]cn1)C(=O)N[C@@H](CC(C)C)[C@@H](O)CC(=O)N[C@@H](CC(C)C)C(=O)NCc1ccccc1 (stereo partly drawn) [2-(4,4-dimethyl-1-butenyl)-3-phenylpropionyl-His-Sta-Leu-benzylamide] | – |
| 2.6 nM | 34 nM | CC(C)C[C@H](NC(=O)C[C@H](O)[C@H](Cc1ccccc1)NC(=O)[C@H](Cc1c[nH]cn1)NC(=O)C(Cc1ccccc1)Cc1ccccc1)C(=O)NCc1ccccc1 [2-benzyl-3-phenylpropionyl-His-AHPPA-Leu-benzylamide] | – |
| 150 nM | 830 nM | CC(C)C[C@H](NC(=O)C[C@H](O)[C@H](CC(C)C)NC(=O)[C@H](Cc1c[nH]cn1)NC(=O)C(Cc1ccccc1)Cc1ccccc1)C(=O)NCc1ccccc1 [2-benzyl-3-phenylpropionyl-His-Sta-Leu-benzylamide] | – |
| 1400 nM | – | CCC(Cc1ccccc1)C(=O)N[C@@H](Cc1c[nH]cn1)C(=O)N[C@@H](CC(C)C)[C@@H](O)CC(=O)N[C@@H](CC(C)C)C(=O)NCc1ccccc1 (stereo partly drawn) [2-ethyl-3-phenylpropionyl-His-Sta-Leu-benzylamide] | – |
| 260 nM | – | CC(C)C[C@H](NC(=O)C[C@H](O)[C@H](CC(C)C)NC(=O)[C@H](Cc1c[nH]cn1)NC(=O)C(C=Cc1ccccc1)Cc1ccccc1)C(=O)NCc1ccccc1 (stereo partly drawn) [2-phenethenyl-3-phenylpropionyl-His-Sta-Leu-benzylamide] | – |
| 370 nM | – | CC(C)C[C@H](NC(=O)C[C@H](O)[C@H](CC(C)C)NC(=O)[C@H](Cc1c[nH]cn1)NC(=O)C(CCc1ccccc1)Cc1ccccc1)C(=O)NCc1ccccc1 (stereo partly drawn) [2-phenethyl-3-phenylpropionyl-His-Sta-Leu-benzylamide] | – |
| 520 nM | 17 nM | CC(C)C[C@H](NC(=O)C[C@H](O)[C@H](CC(C)C)NC(=O)[C@H](Cc1c[nH]cn1)NC(=O)C(CCCCc1ccccc1)Cc1ccccc1)C(=O)NCc1ccccc1 (stereo partly drawn) [2-phenylbutyl-3-phenylpropionyl-His-Sta-Leu-benzylamide] | – |
| 8.1 nM | 23 nM | CC(C)C[C@H](NC(=O)C[C@H](O)[C@H](Cc1ccccc1)NC(=O)[C@H](Cc1c[nH]cn1)NC(=O)C(CCCc1ccccc1)Cc1ccccc1)C(=O)NCc1ccccc1 (stereo partly drawn) [2-phenylpropyl-3-phenylpropionyl-His-AHPPA-Leu-benzylamide] | – |
| 31 nM | 97 nM | CC(C)C[C@H](NC(=O)C[C@H](O)[C@H](CC(C)C)NC(=O)[C@H](Cc1c[nH]cn1)NC(=O)C(CCCc1ccccc1)Cc1ccccc1)C(=O)NCc1ccccc1 (stereo partly drawn) [2-phenylpropyl-3-phenylpropionyl-His-Sta-Leu-benzylamide] | – |
| 35 nM | 71 nM | CC(C)C[C@H](NC(=O)C[C@H](O)[C@H](Cc1ccccc1)NC(=O)[C@H](Cc1c[nH]cn1)NC(=O)CCc1ccccc1)C(=O)NCc1ccccc1 [3-phenylpropionyl-His-AHPPA-Leu-benzylamide] | – |
| – | – | CC(C)C[C@H](NC(=O)C[C@H](O)[C@H](CC(C)C)NC(=O)[C@H](Cc1c[nH]cn1)NC(=O)CCc1ccccc1)C(=O)NCc1ccccc1 [3-phenylpropionyl-His-Sta-Leu-benzylamide] | inhibition at 0.1 µM ([1]; pH 7.3, at 10^-7 M, read-out: inhibition of renin activity at 10^-7 (printed in the I50 column)): 2% |
| 400000 nM | – | CC(C)C[C@H](NC(=O)C[C@H](O)[C@H](CC(C)C)NC(=O)[C@H](Cc1c[nH]cn1)NC(=O)OC(C)(C)C)C(=O)N[C@@H](Cc1ccccc1)C(N)=O [BOC--His--Sta--Leu--Phe--amide, BOC^1 -His-Sta-Leu-Phe-amide] (Boc-H[Sta]LF-NH2) | – |
| 14000 nM | – | COC(=O)[C@H](Cc1ccccc1)NC(=O)[C@H](CC(C)C)NC(=O)C[C@H](O)[C@H](CC(C)C)NC(=O)[C@@H](N)Cc1c[nH]cn1 [His--Sta--Leu--Phe--methyl ester, His-Sta-Leu-Phe-methyl ester] (H-H[Sta]LF-OMe) | – |
| 290 nM | – | CC[C@H](C)[C@H](NC(=O)C[C@H](O)[C@H](CC1CCCCC1)NC(=O)[C@H](Cc1c[nH]cn1)NC(=O)COc1ccccc1)C(=O)NCc1ccccc1 [POA--His--ACHPA--Ile--benzylamide, POA-His-ACHPA-Ile-benzylamide] | – |
| 510 nM | 1.1 nM | CC(C)C[C@H](NC(=O)C[C@H](O)[C@H](CC1CCCCC1)NC(=O)[C@H](Cc1c[nH]cn1)NC(=O)COc1ccccc1)C(=O)N[C@@H](Cc1ccccc1)C(N)=O [POA--His--ACHPA--Leu--Phe--amide, POA-His-ACHPA^4 -Leu-Phe-amide] | – |
| 20 nM | 10 nM | CC(C)C[C@H](NC(=O)C[C@H](O)[C@H](Cc1ccccc1)NC(=O)[C@H](Cc1c[nH]cn1)NC(=O)COc1ccccc1)C(=O)NCc1ccccc1 [POA--His--AHPPA--Leu--benzylamide, Phenoxyacetyl-L-histidyl-(3S,4S)-AHPPA-L-leucyl-benzylamide] | – |
| 7600 nM | – | CC(C)C[C@H](NC(=O)C[C@H](O)[C@H](CC(C)C)NC(=O)[C@H](Cc1c[nH]cn1)NC(=O)COc1ccccc1)C(=O)N[C@@H](Cc1ccccc1)C(N)=O [POA--His--Sta--Leu--Phe--amide, POA-His-Sta-Leu-Phe-amide] (Phenoxyacetyl-H[Sta]LF-NH2) | – |
| 3300 nM | – | COC(=O)[C@H](Cc1ccccc1)NC(=O)[C@H](CC(C)C)NC(=O)C[C@H](O)[C@H](CC(C)C)NC(=O)[C@H](Cc1c[nH]cn1)NC(=O)COc1ccccc1 [POA--His--Sta--Leu--Phe--methyl ester, POA^2 -His-Sta-Leu-Phe-methyl ester] (Phenoxyacetyl-H[Sta]LF-OMe) | – |
| 40000 nM | – | CC(C)C[C@H](NC(=O)[C@H](Cc1c[nH]cn1)NC(=O)COc1ccccc1)[C@@H](O)CC(=O)N[C@@H](Cc1ccccc1)C(=O)N[C@@H](Cc1ccccc1)C(N)=O [POA--His--Sta--Phe--Phe--amide, POA-His-Sta-Phe-Phe-amide] (Phenoxyacetyl-H[Sta]FF-NH2) | – |
| 1400 nM | – | CC[C@H](C)[C@H](NC(=O)C[C@H](O)[C@H](CC1CCCCC1)NC(=O)[C@H](Cc1c[nH]cn1)NC(=O)COc1ccccc1)C(=O)NCc1ccccn1 [POA-His-ACHPA-Ile-2-pyridylmethylamide] | – |
| – | – | His-Sta-Ala-Phe-methyl ester [His--Sta--Ala--Phe--methyl ester] | inhibition of renin activity at 10^-4 (printed in the I50 column) ([1]; pH 7.3, at 10^-4 M): 5% |

| Compound | IC50 [1] | Ki [2] | other results |
| --- | --- | --- | --- |
| CC(C)C[C@H](NC(=O)C[C@H](O)[C@H](CC(C)C)NC(=O)[C@H](Cc1c[nH]cn1)NC(=O)C(C)Cc1ccccc1)C(=O)NCc1ccccc1 (single isomer, unassigned) [2-methyl-3-phenylpropionyl-His--Sta--Leu--benzylamide ("B" Isomer), 2-methyl-3-phenylpropionyl-His-Sta-Leu-benzylamide] | 940 nM | – | – |
